ChEMBL document CHEMBL4706585, “Novel 2-indolinone thiazole hybrids as sunitinib analogues: Design, synthesis, and potent VEGFR-2 inhibition with potential anti-renal cancer activity” (Eur J Med Chem, 2020)

Legend:
A498 = experiment: Cytotoxicity against human A498 cells assessed as reduction in cell viability after 48 hrs by MTT assay; details: A498, 48 h
CAKI-1 = experiment: Cytotoxicity against human CAKI-1 cells assessed as reduction in cell viability after 48 hrs by MTT assay; details: CAKI-1, 48 h
[1] = Cytotoxicity against human RPTEC/TERT1 cells assessed as reduction in cell viability after 48 hrs by MTT assay

SMILES | IC50 (A498) [µM] | IC50 (CAKI-1) [µM] | IC50 [1] [µM]
O=C1/C(=N\N=c2\[nH]c(-c3ccc([N+](=O)[O-])cc3)cs2)c2cc(Cl)ccc2N1Cc1ccccc1 | 24.7 | 5.78 | –
CC(=O)c1s/c(=N\N=C2/C(=O)N(Cc3ccccc3)c3ccc(Cl)cc32)[nH]c1C | 6.27 | 12.8 | –
CCOC(=O)/C(=N/Nc1ccc(C)cc1)S/C(N)=N\N=C1/C(=O)N(Cc2ccccc2)c2ccc(Cl)cc21 | 2.88 | 3.9 | –
CCOC(=O)c1s/c(=N\N=C2/C(=O)N(Cc3ccccc3)c3ccc(Cl)cc32)[nH]c1C | 1.23 | 3.31 | 49.8
O=C1CS/C(=N\N=C2/C(=O)N(Cc3ccccc3)c3ccc(Cl)cc32)N1 | 3.45 | 35.6 | –
NC1=NNC(=O)/C1=C1/C(=O)N(Cc2ccccc2)c2ccc(Cl)cc21 | 8.53 | 0.82 | –
CCN(CC)CCNC(=O)c1c(C)[nH]c(/C=C2\C(=O)Nc3ccc(F)cc32)c1C [SUNITINIB] | 1.25 | 4.93 | 16.9
